The values that follow come from US20240374735A1, “AROMATIC BORON-CONTAINING COMPOUNDS AND INSULIN ANALOGS” (PROTOMER TECHNOLOGIES INC., priority 2020, published 2024).

The subject of the assay is diabetic B6 mice (streptozocin). Kind of assay: Glucose challenge in STZ diabetic mice. As to conditions: injected subcutaneously or intraperitoneally, glucose challenge one hour post-injection. The assay is classed as in vivo. As for the experimental part:
Diabetes was induced in 12-week-old B6 mice using streptozocin (STZ) treatment. Three weeks after the final STZ treatment, blood glucose of the mice was sampled from lateral tail vein to confirm diabetes. Mice with blood glucose of >200 mg/dl were deemed to be diabetic and fasted for 1-6 hours prior to injection. Human insulin and a compound of Formula I in sterile phosphate buffered saline, pH 7.4 were injected either subcutaneously via neck scruff or intraperitoneally, depending on the experiment. Blood glucose was sampled with a glucometer via lateral tail vein at 15-minute intervals. After one hour of initial stabilization of blood glucose levels post-insulin injection, mice were challenged with an intraperitoneal injection of glucose (e.g., 2 g/kg, 4 g/kg, or 6 g/kg; the actual dose depends on the example and experiment) in sterile phosphate buffered saline.

Take “human insulin: Human insulin, comparator in the mouse experiments; biosynthetic human insulin (BHI) in the clamp”: the “Blood glucose response after intraperitoneal glucose bolus” value was “did not activate in a glucose-dependent manner”.
